The text below walks through data of patent US20260048068A1, “PHENYLUREA DERIVATIVES AND THEIR PHARMACEUTICAL USES” (HANGZHOU BIO-SINCERITY PHARMA-TECH CO., LTD., priority 2022, published 2026).

One data set addresses histamine H3 receptor (Homo sapiens, UniProt Q9Y5N1). Kind of data set: FLPPR assay, antagonistic activity at histamine H3 receptor. It is filed as cell-based. Particulars: for inhibition at 0.005 µM: 5 nM compound, read-out: % Inh-AVERAGE @ 5 nM; for inhibition at 0.05 µM: 50 nM compound, read-out: % Inh-AVERAGE @ 50 nM. As to the method: The FLPPR assay (NIH Assay Guidance Manual: HTS Assay Validation-Section 4.3. Analysis (Potency), htpps://www.ncbi.nlm.nih.gov/books/NBK83783) was performed using SUVN-G3031 as the positive control, and 13 target compounds were tested for the antagonistic activity target to histamine H3 receptor.

In a further data set the target is hERG channel (Homo sapiens, UniProt Q12809). Description: in vitro. The source says: In cardiomyocytes, inhibition of the delayed rectifier potassium current (IKr) channel protein encoded by the human Ether-a-go-go Related Gene (hERG) is the most importane mechanism by which drugs lead to prolongation of the QT interval. hERG is characterized by a specific molecular structure, which allows it to be inhibited by different structures, leading to severe arrhythmias. Statistically, 25-40% of lead compounds show varying degrees of hERG-related toxicity. early evaluation of the effects of compounds on hERG is crucial in the drug development process. The inhibition rate of compounds on hERG channels is examined by manual membrane clamp technique on HEK293 cell line whichi stably ecpressing hERG ion channels.
Chain of hERG channel (Q12809 whole entry): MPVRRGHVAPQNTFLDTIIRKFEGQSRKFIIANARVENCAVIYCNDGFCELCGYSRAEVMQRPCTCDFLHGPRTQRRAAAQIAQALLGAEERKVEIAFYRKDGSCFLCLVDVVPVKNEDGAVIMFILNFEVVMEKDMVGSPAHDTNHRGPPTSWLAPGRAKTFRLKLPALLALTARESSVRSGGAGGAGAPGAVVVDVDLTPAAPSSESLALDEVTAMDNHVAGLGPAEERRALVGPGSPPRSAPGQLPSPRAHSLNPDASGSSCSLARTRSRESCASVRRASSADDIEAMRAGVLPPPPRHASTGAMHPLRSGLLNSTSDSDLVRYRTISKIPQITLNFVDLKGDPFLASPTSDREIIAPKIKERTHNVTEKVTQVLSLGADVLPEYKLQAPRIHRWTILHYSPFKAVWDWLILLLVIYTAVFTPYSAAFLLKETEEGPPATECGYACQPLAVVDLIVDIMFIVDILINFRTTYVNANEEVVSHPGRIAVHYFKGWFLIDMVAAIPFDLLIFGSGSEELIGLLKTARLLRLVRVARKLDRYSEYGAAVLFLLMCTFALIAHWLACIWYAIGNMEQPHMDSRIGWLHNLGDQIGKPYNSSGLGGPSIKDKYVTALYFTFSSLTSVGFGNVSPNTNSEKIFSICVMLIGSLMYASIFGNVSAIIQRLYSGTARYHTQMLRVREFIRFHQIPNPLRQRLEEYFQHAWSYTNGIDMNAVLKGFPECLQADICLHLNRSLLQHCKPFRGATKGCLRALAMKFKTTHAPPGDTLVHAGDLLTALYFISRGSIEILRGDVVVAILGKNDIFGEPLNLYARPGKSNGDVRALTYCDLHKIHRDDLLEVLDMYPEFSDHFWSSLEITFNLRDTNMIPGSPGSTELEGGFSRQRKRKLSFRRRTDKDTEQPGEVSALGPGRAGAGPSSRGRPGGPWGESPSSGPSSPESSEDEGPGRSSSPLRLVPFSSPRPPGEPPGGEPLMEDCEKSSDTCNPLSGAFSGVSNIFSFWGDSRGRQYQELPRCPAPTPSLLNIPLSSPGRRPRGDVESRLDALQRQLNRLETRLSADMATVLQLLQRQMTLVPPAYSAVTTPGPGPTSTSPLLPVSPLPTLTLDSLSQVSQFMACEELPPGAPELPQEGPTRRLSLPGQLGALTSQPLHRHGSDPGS

A further data set deals with CCI model rats. Description: Chronic constriction injury (CCI) neuropathic pain model, mechanical withdrawal threshold. It is filed as in vivo. Particulars: CCI SD rats; for Mechanical pain (withdrawal) threshold vs model group: single dose, 0.5-6 h. The source says: Exposing the sciatic nerve on male SD rats' (180-200 g) right hind leg, in the anterior segment where the sciatic nerve is about to bifurcate, use sterile chromic gut thread (No. 4, 0.15 mm in diameter) to ligate 4 loops loosely, with each loop 1-2 mm apart, and suture the muscle and skin to establish the chronic constriction injury (CCI) model. In the sham-operated group, only the sciatic nerve is exposed without ligation, and the muscle and skin are sutured. The mechanical withdrawal threshold is detected by electronic analgesia meter (IITC-2391) on the 7th day for 2 consecutive days.
The CCI model rats with stabilized mechanical withdrawal thresholds were randomly divided into three groups, named model group (model), pregabalin group (Pre, 30 mg/kg), BIOS-A-3 compound group (1 mg/kg), and were administered at 1 mL/100 g by gavage, and the same column of saline was gavaged in Sham and model group. The basic value was determined before drug administration, and the mechanical withdrawal thresholds were detected at 0.5 h, 1 h, 2 h, 4 h and 6 h after a single drug administration, and the p value was calculated by ANOVA with T-test.

Where [1] appears, read: Average inhibition rate (%) on hERG channel.
The mark [2] stands for this setting: Inhibition rate on hERG channel.

Chain of histamine H3 receptor (Q9Y5N1 whole entry, species assumed): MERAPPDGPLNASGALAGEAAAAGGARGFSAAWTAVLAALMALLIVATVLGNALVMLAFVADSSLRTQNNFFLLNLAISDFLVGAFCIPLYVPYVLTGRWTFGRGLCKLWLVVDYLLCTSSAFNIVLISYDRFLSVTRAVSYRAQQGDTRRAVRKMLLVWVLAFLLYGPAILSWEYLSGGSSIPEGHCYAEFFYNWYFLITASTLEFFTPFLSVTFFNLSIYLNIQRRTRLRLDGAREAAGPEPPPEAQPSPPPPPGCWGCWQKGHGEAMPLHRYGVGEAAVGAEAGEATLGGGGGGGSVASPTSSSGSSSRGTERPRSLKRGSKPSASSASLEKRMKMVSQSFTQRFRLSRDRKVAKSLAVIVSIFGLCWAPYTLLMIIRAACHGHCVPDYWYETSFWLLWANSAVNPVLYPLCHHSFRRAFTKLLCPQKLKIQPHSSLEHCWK

As for `O=C(NCCN1CCN(C2CCC2)CC1)Nc1ccc(OC2CCN(C3CCC3)CC2)cc1` [BIOS-A-15, 1-(2-(4-cyclobutylpiperazin-1-yl)ethyl)-3-(4-((1-cyclobutylpiperidin-4-yl)oxy)phenyl)urea], on histamine H3 receptor, the inhibition at 0.005 µM was 101% and the inhibition at 0.05 µM amounted to 99.9%. Further, the inhibition at 10 µM against hERG channel (setting [1]) is -0.55%.

Regarding `C[C@@H]1CCCN1CCNC(=O)Nc1ccc(OC2CCN(C3CCC3)CC2)cc1` [BIOS-A-6, (R)-1-(4-((1-cyclobutylpiperidin-4-yl)oxy)phenyl)-3-(2-(2-methylpyrrolidin-1-yl)ethyl)urea], at histamine H3 receptor, the inhibition at 0.005 µM came out at 81.3% and the inhibition at 0.05 µM came out at 101%.

As to `CN1CCN(CCNC(=O)Nc2ccc(OC3CCN(C4CCC4)CC3)cc2)CC1` [BIOS-A-10, 1-(4-((1-cyclobutylpiperidin-4-yl)oxy)phenyl)-3-(2-(4-methylpiperazin-1-yl)ethyl)urea], on histamine H3 receptor, the inhibition at 0.005 µM worked out at 99.7% and the inhibition at 0.05 µM was determined as 101%. The inhibition at 10 µM on hERG channel (setting [1]) is -2.92%. For the same molecule, on hERG channel (setting [2]), the inhibition at 10 µM was under 5%.

In the case of `O=C(NCCN1CCC(F)(F)CC1)Nc1ccc(OC2CCN(C3CCC3)CC2)cc1` [BIOS-A-7, 1-(4-((1-cyclobutylpiperidin-4-yl)oxy)phenyl)-3-(2-(4,4-difluoropiperidin-1-yl)ethyl)urea], on histamine H3 receptor, the inhibition at 0.005 µM was found to be 101% and the inhibition at 0.05 µM was 100%.

Take `CC(C)C[C@H](CN)CC(=O)O` [Pregabalin, reference compound]: the “Mechanical pain (withdrawal) threshold vs model group” value in the data set on CCI model rats (30 mg/kg by gavage) is “only increased the mechanical sting threshold of CCI rats at 0.5 h and 1 h after administration”.

As to `O=C(NCCN1CCC(O)CC1)Nc1ccc(OC2CCN(C3CCC3)CC2)cc1` [BIOS-A-9, 1-(4-((1-cyclobutylpiperidin-4-yl)oxy)phenyl)-3-(2-(4-hydroxypiperidin-1-yl)ethyl)urea], at histamine H3 receptor, the inhibition at 0.005 µM was 101% and the inhibition at 0.05 µM worked out at 101%.

On to `O=C(NCCN1CCSCC1)Nc1ccc(OC2CCN(C3CCC3)CC2)cc1` [BIOS-A-8, 1-(4-((1-cyclobutylpiperidin-4-yl)oxy)phenyl)-3-(2-thiomorpholinoethyl)urea], for which, at histamine H3 receptor, the inhibition at 0.005 µM was 100% and the inhibition at 0.05 µM stood at 100%.

With `O=C(Nc1ccc(OC2CCN(C3CCC3)CC2)cc1)NC1CCCC1` [BIOS-A-1, 1-(4-((1-cyclobutylpiperidin-4-yl)oxy)phenyl)-3-cyclopentylurea], on histamine H3 receptor, the inhibition at 0.005 µM amounted to 77.4% and the inhibition at 0.05 µM turned out to be 99.7%.

Turning to `O=C(NCCN1CCCCC1)Nc1ccc(OC2CCN(C3CCC3)CC2)cc1` [BIOS-A-4, 1-(4-((1-cyclobutylpiperidin-4-yl)oxy)phenyl)-3-(2-(piperidin-1-yl)ethyl)urea], on histamine H3 receptor, the inhibition at 0.005 µM is 102% and the inhibition at 0.05 µM was found to be 98.6%. The inhibition at 10 µM at hERG channel (setting [1]) came out at 0.96%.

For the molecule `O=C(NCCN1CCOCC1)Nc1ccc(OC2CCN(C3CCC3)CC2)cc1` [BIOS-A-3, 1-(4-((1-cyclobutylpiperidin-4-yl)oxy)phenyl)-3-(2-morpholinoethyl)urea], at histamine H3 receptor, the inhibition at 0.005 µM was determined as 95.6% and the inhibition at 0.05 µM was determined as 100%. Further, the inhibition at 10 µM at hERG channel (setting [1]) worked out at 1.56%. Further, the “Mechanical pain (withdrawal) threshold vs model group” value with CCI model rats (1 mg/kg by gavage) is recorded as “significantly increased the mechanical tingling threshold of CCI model rats”. In addition, in the data set with CCI model rats (1 mg/kg vs pregabalin 30 mg/kg), the “Acting time compared with pregabalin” value was “had a longer acting time”.

`O=C(NCCN1CCCC1)Nc1ccc(OC2CCN(C3CCC3)CC2)cc1` [BIOS-A-5, 1-(4-((1-cyclobutylpiperidin-4-yl)oxy)phenyl)-3-(2-(pyrrolidin-1-yl)ethyl)urea]: at histamine H3 receptor, the inhibition at 0.005 µM came out at 101% and the inhibition at 0.05 µM was found to be 99.7%. Besides, the inhibition at 10 µM against hERG channel (setting [1]) was determined as 2.64%.

Take `O=C(NCCN1CCNCC1)Nc1ccc(OC2CCN(C3CCC3)CC2)cc1` [BIOS-A-14, 1-(4-((1-cyclobutylpiperidin-4-yl)oxy)phenyl)-3-(2-(piperazin-1-yl)ethyl)urea]: at histamine H3 receptor, the inhibition at 0.005 µM amounted to 100% and the inhibition at 0.05 µM is 99.7%. Also, on hERG channel (setting [1]), the inhibition at 10 µM was -0.62%.

In the case of `CC(C)N1CCN(CCNC(=O)Nc2ccc(OC3CCN(C4CCC4)CC3)cc2)CC1` [BIOS-A-11, 1-(4-((1-cyclobutylpiperidin-4-yl)oxy)phenyl)-3-(2-(4-isopropylpiperazin-1-yl)ethyl)urea], the inhibition at 0.005 µM at histamine H3 receptor was 100%. Besides, the inhibition at 0.05 µM on histamine H3 receptor worked out at 100%. Moreover, the inhibition at 10 µM was -1.22% on hERG channel (setting [1]) and under 5% against hERG channel (setting [2]).

In the case of `CN1CCCN(CCNC(=O)Nc2ccc(OC3CCN(C4CCC4)CC3)cc2)CC1` [BIOS-A-13, 1-(4-((1-cyclobutylpiperidin-4-yl)oxy)phenyl)-3-(2-(4-methyl-1,4-diazepan-1-yl)ethyl)urea], on histamine H3 receptor, the inhibition at 0.005 µM was 101% and the inhibition at 0.05 µM is 101%. Further, the inhibition at 10 µM against hERG channel (setting [1]) is -0.54%.
